Test results from publication PMC10794144, “A novel antibiotic class targeting the lipopolysaccharide transporter” (Nature, 2024).

Key:
A. baumannii = assay: microbe, parasite or virus in culture
In short: (§1)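 Values come from CLSI-guided (M07, M100) broth microdilution in CAMHB. Endpoint: lowest concentration halting growth, judged by naked eye or by OD600 plateau.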

[1] = system: K. pneumoniae ATCC 700603; assay: microbe, parasite or virus in culture
In short: as §1

CN1C(=O)[C@H](CCCCN)NC(=O)[C@H](CCCN)NCc2cccnc2Sc2c(Cl)ccc(Cl)c2CNC(=O)[C@@H]1Cc1c[nH]c2ccccc12 [RO7075573]
32 µg/mL: MIC 100% (A. baumannii; ROB08710, Study LGC295147) | MIC 100% (A. baumannii; ROB08710, Study LGC308175) | MIC 100% (A. baumannii; ROB08710, Study ROC012) | MIC 100% ([1]; Study LGC281440)
0.25 µg/mL: MIC 80% (A. baumannii; ROB08709, Study LGC284879) | MIC 80% (A. baumannii; ROB08709, Study LGC299544) | MIC 80% (A. baumannii; ROB08709, Study ROC010) | MIC 80% (A. baumannii; ROB08709, Study ROC012) | MIC 80% (A. baumannii; ROB08710, Study LGC281440) | MIC 80% (A. baumannii; ROB08710, Study LGC282160) | MIC 80% (A. baumannii; ROB08710, Study LGC284879) | MIC 80% (A. baumannii; ROB08710, Study LGC285582) | MIC 80% (A. baumannii; ROB08710, Study ROC010) | MIC 80% (A. baumannii; ROB08710, Study ROC012)
0.5 µg/mL: MIC 80% (A. baumannii; ROB08710, Study LGC294355) | MIC 80% (A. baumannii; ROB08710, Study LGC299544) | MIC 100% (A. baumannii; ROB08710, Study ROC010)
16 µg/mL: MIC 100% (A. baumannii; ROB08708, Study ROC010) | MIC 100% (A. baumannii; ROB08709, Study LGC281440)
64 µg/mL: MIC 100% (A. baumannii; ROB08708, Study LGC295147) | MIC 100% (A. baumannii; ROB08708, Study LGC299544) | MIC 100% (A. baumannii; ROB08708, Study LGC308175) | MIC 100% (A. baumannii; ROB08708, Study ROC012) | MIC 100% (A. baumannii; ROB08709, Study LGC285582) | MIC 100% (A. baumannii; ROB08709, Study LGC286210) | MIC 100% (A. baumannii; ROB08709, Study LGC295147) | MIC 100% (A. baumannii; ROB08709, Study LGC296813) | MIC 100% (A. baumannii; ROB08709, Study LGC299544) | MIC 100% (A. baumannii; ROB08709, Study LGC301026) | MIC 100% (A. baumannii; ROB08709, Study ROC010) | MIC 100% (A. baumannii; ROB08709, Study ROC012) | MIC 100% (A. baumannii; ROB08710, Study LGC282160) | MIC 100% (A. baumannii; ROB08710, Study LGC285582) | MIC 100% (A. baumannii; ROB08710, Study LGC286210) | MIC 100% (A. baumannii; ROB08710, Study LGC296813) | MIC 100% (A. baumannii; ROB08710, Study LGC299544) | MIC 100% (A. baumannii; ROB08710, Study LGC301026)
0.12 µg/mL: MIC 80% (A. baumannii; ROB08708, Study LGC295147) | MIC 80% (A. baumannii; ROB08708, Study LGC296813) | MIC 80% (A. baumannii; ROB08708, Study LGC299544) | MIC 80% (A. baumannii; ROB08708, Study LGC301026) | MIC 80% (A. baumannii; ROB08708, Study ROC010) | MIC 80% (A. baumannii; ROB08708, Study ROC012) | MIC 80% (A. baumannii; ROB08709, Study LGC281440) | MIC 80% (A. baumannii; ROB08709, Study LGC282160) | MIC 80% (A. baumannii; ROB08709, Study LGC285582) | MIC 80% (A. baumannii; ROB08709, Study LGC286210) | MIC 80% (A. baumannii; ROB08709, Study LGC293598) | MIC 80% (A. baumannii; ROB08709, Study LGC294355) | MIC 80% (A. baumannii; ROB08709, Study LGC295147) | MIC 80% (A. baumannii; ROB08709, Study LGC296813) | MIC 80% (A. baumannii; ROB08709, Study LGC301026) | MIC 80% (A. baumannii; ROB08709, Study LGC308175) | MIC 80% (A. baumannii; ROB08710, Study LGC286210) | MIC 80% (A. baumannii; ROB08710, Study LGC293598) | MIC 80% (A. baumannii; ROB08710, Study LGC295147) | MIC 80% (A. baumannii; ROB08710, Study LGC296813) | MIC 80% (A. baumannii; ROB08710, Study LGC301026) | MIC 80% (A. baumannii; ROB08710, Study LGC308175)
≤0.06 µg/mL: MIC 80% (A. baumannii; ROB08708, Study LGC308175)
> 64 µg/mL: MIC ([1]; Klebsiella pneumoniae, ATCC700603)
8 µg/mL: MIC 100% (A. baumannii; ROB08710, Study LGC281440)
>64 µg/mL: MIC 100% (A. baumannii; ROB08708, Study LGC294355) | MIC 100% (A. baumannii; ROB08708, Study LGC296813) | MIC 100% (A. baumannii; ROB08708, Study LGC301026) | MIC 100% (A. baumannii; ROB08709, Study LGC282160) | MIC 100% (A. baumannii; ROB08709, Study LGC284879) | MIC 100% (A. baumannii; ROB08709, Study LGC293598) | MIC 100% (A. baumannii; ROB08709, Study LGC294355) | MIC 100% (A. baumannii; ROB08709, Study LGC308175) | MIC 100% (A. baumannii; ROB08710, Study LGC284879) | MIC 100% (A. baumannii; ROB08710, Study LGC293598) | MIC 100% (A. baumannii; ROB08710, Study LGC294355) | MIC 100% ([1]; Study LGC282160) | MIC 100% ([1]; Study LGC284879) | MIC 100% ([1]; Study LGC285582) | MIC 100% ([1]; Study LGC286210) | MIC 100% ([1]; Study LGC293598) | MIC 100% ([1]; Study LGC294355) | MIC 100% ([1]; Study LGC295147) | MIC 100% ([1]; Study LGC296813) | MIC 100% ([1]; Study LGC299544) | MIC 100% ([1]; Study LGC301026) | MIC 100% ([1]; Study LGC308175) | MIC 100% ([1]; Study ROC010) | MIC 100% ([1]; Study ROC012)
4- to 64 fold: Fold more potent than RO7036668 (A. baumannii; panel of A. baumannii)
